From ChEMBL document CHEMBL1201862, “PubChem BioAssay data set” (2004) come the findings set out here.

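Compound exposure: 48 hours, 5 concentrations, 96-well plates. Abbreviation: GI50, concentration required for 50% inhibition of growth.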 Activity calls are given as the source filed them. Cut-off read from the data, not from the text of the source: active = GI50 up to about 1.1 µM and inactive = higher.

Among the test systems are SF-539; HOP-92; EKVX; IGROV-1; HT-29; A498; HL-60; SR; SN12C; LOX IMVI; SK-OV-3; SF-295; MDA-MB-231; UACC-62; SK-MEL-2; Malme-3M; CAKI-1; NCI-H460; MOLT-4.
Assay in all cases: inhibition of tumour cell growth, NCI panel, 48 h

For the compound `O=C1NC(=O)C(Cc2ccccc2)(c2cccnc2)N1` (stereo not given), the GI50 in the experiment with SF-539, with HOP-92, in the experiment on EKVX, with IGROV-1, in the experiment on HT-29 and in the experiment with A498 was > 100 µM (inactive) each time. The GI50 in the experiment on HL-60, in the experiment on SR, in the experiment with SN12C, with LOX IMVI, in the experiment on SK-OV-3 and in the experiment with SF-295 was > 100 µM (inactive) throughout. The GI50 in the experiment on MDA-MB-231, in the experiment on UACC-62, in the experiment with SK-MEL-2, in the experiment on Malme-3M, in the experiment on CAKI-1 and with NCI-H460 was > 100 µM (inactive) each time. In addition, the GI50 in the experiment with MOLT-4 was > 100 µM (inactive).
For `CCN(Cc1cc(Cl)cc(C)c1O)Cc1c(O)ccc2ccccc12`, the GI50 was 13.3 µM (inactive) in the experiment with SF-539; 11.2 µM (inactive) in the experiment with HOP-92; 17.3 µM (inactive) in the experiment on EKVX; 15.3 µM (inactive) in the experiment with IGROV-1; 12.9 µM (inactive) in the experiment with HT-29; 18.7 µM (inactive) with A498. In addition, the GI50 is 12 µM (inactive) in the experiment on HL-60; 16.2 µM (inactive) with SR; 18.2 µM (inactive) in the experiment on SN12C; 18.2 µM (inactive) in the experiment on LOX IMVI; 15.2 µM (inactive) in the experiment with SK-OV-3; 16.9 µM (inactive) in the experiment on SF-295. Further, the GI50 was 18.4 µM (inactive) in the experiment on MDA-MB-231; 15.7 µM (inactive) with UACC-62; 16.4 µM (inactive) with SK-MEL-2; 14.5 µM (inactive) with Malme-3M; 15.3 µM (inactive) with CAKI-1; 18.2 µM (inactive) with NCI-H460. Moreover, the GI50 in the experiment on MOLT-4 is 5.36 µM (inactive).
In the case of `NS(=O)(=O)c1ccc(Nc2c3ccccc3nc3c(C(=O)NCCO)cccc23)cc1`, the GI50 in the experiment on SF-539 was 0.131 µM (active); with HOP-92, 0.148 µM (active); in the experiment with EKVX it was 0.251 µM (active); with IGROV-1 it was 0.115 µM (active); with HT-29, 0.16 µM (active); with A498, 0.105 µM (active). The GI50 in the experiment on HL-60 is 0.243 µM (active); with SR it was 0.0128 µM (active); in the experiment on SN12C, 0.176 µM (active); in the experiment with LOX IMVI, 0.124 µM (active); in the experiment on SK-OV-3, 0.201 µM (active); in the experiment with SF-295 it was 0.191 µM (active). In addition, the GI50 is 0.184 µM (active) with MDA-MB-231; 0.135 µM (active) with UACC-62; 0.186 µM (active) with SK-MEL-2; 0.13 µM (active) in the experiment with Malme-3M; 0.198 µM (active) in the experiment with CAKI-1; 0.0439 µM (active) in the experiment with NCI-H460. Besides, the GI50 in the experiment on MOLT-4 is 0.0241 µM (active).
As for `CC[C@]12C=CCN3CC[C@@]4(c5cc(N=O)c(OC)cc5N(C)[C@H]4[C@@](O)(C(=O)NC(Cc4c[nH]c5ccccc45)C(=O)OC)[C@@H]1O)[C@@H]32` (stereo not given in full), the GI50 was 16.6 µM (inactive) in the experiment on SF-539; 12.3 µM (inactive) with HOP-92; 20.9 µM (inactive) in the experiment on EKVX; 17.7 µM (inactive) in the experiment on IGROV-1; 14.1 µM (inactive) with HT-29; 32.4 µM (inactive) in the experiment on A498. For the same compound, the GI50 in the experiment with HL-60 was 2.87 µM (inactive); in the experiment on SR, 1.22 µM (inactive); in the experiment with SN12C, 26.4 µM (inactive); with LOX IMVI, 16.7 µM (inactive); in the experiment on SK-OV-3 it was 20.2 µM (inactive); with SF-295 it was 17.1 µM (inactive). Besides, the GI50 with MDA-MB-231 is 18.3 µM (inactive); with UACC-62, 16 µM (inactive); in the experiment on SK-MEL-2, 15.3 µM (inactive); in the experiment with Malme-3M it was 18.6 µM (inactive); in the experiment with CAKI-1, 17.9 µM (inactive); with NCI-H460, 19.1 µM (inactive). Moreover, the GI50 in the experiment with MOLT-4 was 1.46 µM (inactive).
With `C[N+](C)(C)C(C1=CCCC1=O)c1ccccc1` (stereo not given), the GI50 in the experiment with SF-539 was 54.5 µM (inactive); in the experiment with HOP-92 it was 26.4 µM (inactive); with EKVX it was > 100 µM (inactive); with IGROV-1 it was 30.3 µM (inactive); in the experiment with HT-29, 23.5 µM (inactive); with A498, > 100 µM (inactive). In addition, the GI50 is 25.8 µM (inactive) with HL-60; 15.3 µM (inactive) in the experiment with SR; 20.3 µM (inactive) with SN12C; 18.7 µM (inactive) with LOX IMVI; > 100 µM (inactive) in the experiment with SK-OV-3; > 100 µM (inactive) in the experiment on SF-295. The GI50 in the experiment on MDA-MB-231 is 29 µM (inactive); with UACC-62, 18.3 µM (inactive); in the experiment with SK-MEL-2, 84.9 µM (inactive); in the experiment on Malme-3M, 19.2 µM (inactive); in the experiment on CAKI-1, 24.5 µM (inactive); in the experiment on NCI-H460, 28.4 µM (inactive). For the same compound, the GI50 with MOLT-4 is 24.1 µM (inactive).
With `CCC1C(=O)C(O)[C@H]2[C@@H]3C(O)CC4=CC(=O)CC[C@]4(C)[C@H]3CC[C@]12C` (stereo not given in full), the GI50 with SF-539, in the experiment with HOP-92, in the experiment with EKVX, in the experiment on IGROV-1, in the experiment with HT-29 and in the experiment with A498 was > 50 µM (inactive) each time. Besides, the GI50 in the experiment with HL-60, with SR, in the experiment on SN12C, in the experiment with LOX IMVI, with SK-OV-3 and with SF-295 was > 50 µM (inactive) each time. The GI50 in the experiment on MDA-MB-231, with UACC-62, in the experiment with SK-MEL-2, in the experiment with Malme-3M, with CAKI-1 and with NCI-H460 was > 50 µM (inactive) throughout. Further, the GI50 with MOLT-4 is > 50 µM (inactive).
With `CCCCCCC(C)c1ccc2c(c1)C(=O)c1nc3ccncc3c(=O)n1-2` (stereo not given), the GI50 with SF-539 was 4.44 µM (inactive); in the experiment on HOP-92, 78.3 µM (inactive); with EKVX it was 4.25 µM (inactive); in the experiment on IGROV-1, 2.51 µM (inactive); in the experiment on HT-29 it was 2.1 µM (inactive); in the experiment on A498, 4.32 µM (inactive). Also, the GI50 with HL-60 was 0.26 µM (active); with SR it was 0.225 µM (active); in the experiment with SN12C it was 4.33 µM (inactive); with LOX IMVI, 1.06 µM (active); in the experiment with SK-OV-3 it was 5.9 µM (inactive); in the experiment with SF-295, 6.38 µM (inactive). In addition, the GI50 in the experiment with MDA-MB-231 was 2.54 µM (inactive); in the experiment on UACC-62 it was 2.29 µM (inactive); with SK-MEL-2, 3.61 µM (inactive); in the experiment with Malme-3M, 0.235 µM (active); in the experiment with CAKI-1, 2.54 µM (inactive); with NCI-H460, 2.07 µM (inactive). The GI50 with MOLT-4 was 0.661 µM (active).
Regarding `C(=N\Cc1ccccc1)/c1ccccc1-c1ccccc1/C=N/Cc1ccccc1`, the GI50 is > 10 µM (inactive) in the experiment with SF-539; > 10 µM (inactive) with HOP-92; > 10 µM (inactive) in the experiment on EKVX; > 7.46 µM (inactive) in the experiment with IGROV-1; > 10 µM (inactive) in the experiment with HT-29; > 10 µM (inactive) in the experiment with A498. Besides, the GI50 in the experiment with HL-60 is 2.36 µM (inactive); in the experiment with SR it was 3.26 µM (inactive); in the experiment on SN12C, > 10 µM (inactive); in the experiment with LOX IMVI, 5.42 µM (inactive); with SK-OV-3 it was > 10 µM (inactive); in the experiment with SF-295, > 10 µM (inactive). Also, the GI50 was > 10 µM (inactive) in the experiment with MDA-MB-231; > 7.23 µM (inactive) in the experiment with UACC-62; > 10 µM (inactive) in the experiment on SK-MEL-2; > 9.62 µM (inactive) in the experiment with Malme-3M; > 10 µM (inactive) with CAKI-1; > 8.34 µM (inactive) with NCI-H460. For the same compound, in the experiment with MOLT-4, the GI50 was 3.52 µM (inactive).
In the case of `CCOC(=O)C(=O)/C(=C\NC(=S)Nc1ccccc1Cl)C(=O)OCC`, the GI50 in the experiment on SF-539 was > 100 µM (inactive); in the experiment on HOP-92, 3.59 µM (inactive); with EKVX, > 100 µM (inactive); with IGROV-1, > 100 µM (inactive); in the experiment with HT-29, > 100 µM (inactive); with A498, > 100 µM (inactive). The GI50 in the experiment with HL-60, in the experiment on SR, in the experiment with SN12C, with LOX IMVI, with SK-OV-3 and in the experiment with SF-295 was > 100 µM (inactive) in each case. Also, the GI50 in the experiment with MDA-MB-231, with UACC-62, in the experiment on SK-MEL-2, in the experiment on Malme-3M, in the experiment with CAKI-1 and in the experiment on NCI-H460 was > 100 µM (inactive) in each case. Further, the GI50 in the experiment with MOLT-4 was > 100 µM (inactive).
As to `COC(=O)CC[C@@H](C)[C@H]1CC[C@H]2[C@@H]3CC[C@@H]4C[C@H](O)CC[C@]4(C)[C@H]3CC[C@]12C`, the GI50 in the experiment with SF-539 was 18.5 µM (inactive); in the experiment on HOP-92, 13.8 µM (inactive); with EKVX it was 19.2 µM (inactive); in the experiment on IGROV-1 it was 17.2 µM (inactive); in the experiment with HT-29, 16.6 µM (inactive); in the experiment on A498, 20.5 µM (inactive). In addition, the GI50 in the experiment on HL-60 is 15 µM (inactive); with SR, 14.9 µM (inactive); in the experiment with SN12C it was 18.6 µM (inactive); in the experiment on LOX IMVI, 18.7 µM (inactive); with SK-OV-3, 20.8 µM (inactive); in the experiment on SF-295, 18.2 µM (inactive). The GI50 in the experiment with MDA-MB-231 was 17.8 µM (inactive); in the experiment on UACC-62 it was 17.9 µM (inactive); in the experiment on SK-MEL-2 it was 18.7 µM (inactive); in the experiment with Malme-3M it was 17 µM (inactive); in the experiment on CAKI-1, 17.9 µM (inactive); in the experiment with NCI-H460, 19.3 µM (inactive). The GI50 in the experiment on MOLT-4 is 14.5 µM (inactive).
